# Measured values taken from ChEMBL document CHEMBL4138191, “Organic arsenicals target thioredoxin reductase followed by oxidative stress and mitochondrial dysfunction resulting in apoptosis” (Eur J Med Chem, 2018).
# Activity calls are given as the source filed them. No cut-off for these calls is given here.
# Tests used:
# HL-60 [1] = assay: Cytotoxicity against human HL60 cells after 24 hrs by MTT assay; format: functional, cell-based; conditions: for IC50: HL-60, 24 h
# HL-60 [2] = assay: Cytotoxicity against human HL60 cells after 48 hrs by MTT assay; format: functional, cell-based; conditions: for IC50: HL-60, 48 h
# MCF7 = assay: Cytotoxicity against human MCF7 cells after 48 hrs by MTT assay; format: functional, cell-based; conditions: for IC50: MCF7, 48 h
# SGC-7901 = assay: Cytotoxicity against human SGC7901 cells after 24 hrs by MTT assay; format: functional, cell-based; conditions: for IC50: SGC-7901, 24 h
# GES1 = assay: Cytotoxicity against human GES-1 cells after 48 hrs by MTT assay; format: cell-based; conditions: for IC50: Homo sapiens, GES1, 48 h; for Activity: human, ges1, 48 h
# [3] = target: T1, Thioredoxin reductase 1, cytoplasmic (Homo sapiens) (UniProt Q16881); assay: Inhibition of TrxR in human HL60 cells using thioredoxin as substrate up to 24 hrs measured for 5 mins by UV-Vis spectrophotometric analysis; format: cell-based
# T1 sequence (whole entry): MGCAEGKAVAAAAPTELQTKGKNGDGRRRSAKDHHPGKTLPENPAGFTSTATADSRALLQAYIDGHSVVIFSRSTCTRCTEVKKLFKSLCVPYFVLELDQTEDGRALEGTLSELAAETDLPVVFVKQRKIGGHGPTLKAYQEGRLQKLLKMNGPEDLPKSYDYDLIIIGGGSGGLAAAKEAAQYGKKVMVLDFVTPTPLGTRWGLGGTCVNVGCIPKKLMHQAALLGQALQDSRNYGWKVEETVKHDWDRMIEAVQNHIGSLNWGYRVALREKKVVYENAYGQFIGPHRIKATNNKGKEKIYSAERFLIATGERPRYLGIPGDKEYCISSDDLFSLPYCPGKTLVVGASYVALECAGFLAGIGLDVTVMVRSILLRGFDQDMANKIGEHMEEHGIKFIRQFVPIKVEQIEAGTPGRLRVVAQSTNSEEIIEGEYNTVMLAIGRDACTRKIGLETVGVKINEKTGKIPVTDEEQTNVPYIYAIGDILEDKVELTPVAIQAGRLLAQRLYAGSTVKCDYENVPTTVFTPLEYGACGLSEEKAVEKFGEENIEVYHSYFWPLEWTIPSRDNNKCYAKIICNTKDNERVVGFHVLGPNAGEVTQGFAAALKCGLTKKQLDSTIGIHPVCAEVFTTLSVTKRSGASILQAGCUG
# [4] = target: T1, Thioredoxin reductase 1, cytoplasmic (Homo sapiens); assay: Inhibition of TrxR in human HL60 cells assessed as residual activity at 2 times IC50 using thioredoxin as substrate up to 24 hrs measured for 5 mins by UV-Vis spectrophotometric analysis relative to control; format: cell-based
# HL-60 [5] = assay: Induction of ROS generation in human HL60 cells at 1.5 uM after 24 hrs in presence of ROS inhibitor NAC by DCFH-DA staining-based flow cytometry; format: functional, cell-based
# HL-60 [6] = assay: Induction of ROS generation in human HL60 cells at 1.5 uM after 24 hrs in presence of antioxidant DTT by DCFH-DA staining-based flow cytometry; format: functional, cell-based
# HL-60 [7] = assay: Induction of ROS generation in human HL60 cells at 1.5 uM after 24 hrs by DCFH-DA staining-based flow cytometry; format: functional, cell-based
# HL-60 [8] = assay: Induction of apoptosis in human HL60 cells assessed as less cell quantity at 0.75 to 1.5 uM after 24 hrs by Hoechst 33342 staining-based laser scanning confocal microscopic analysis; format: functional
# HL-60 [9] = assay: Induction of mitochondrial membrane potential loss in human HL60 cells at 0.75 uM after 24 hrs by JC-1 staining-based flow cytometry (reference value: 24.3%); format: functional
# HL-60 [10] = assay: Induction of mitochondrial membrane potential loss in human HL60 cells at 1.5 uM after 24 hrs by JC-1 staining-based flow cytometry (reference value: 24.3%); format: functional
# HL-60 [11] = assay: Reduction of mitochondrial membrane potential in human HL60 cells assessed as decrease in ATP levels at 0.75 to 1.5 uM after 24 hrs; format: functional, cell-based
# Liver = assay: Induction of mitochondrial dysfunction in Wistar rat liver assessed as swelling up to 30 uM for 60 mins; format: functional; conditions: mitochondria
# HL-60 [12] = assay: Induction of mitochondrial dysfunction in human HL60 cells assessed as increase in intracellular calcium level at 0.75 to 1.5 uM after 4 to 24 hrs by Fluo-3 AM dye-based flow cytometry; format: functional, cell-based
# HL-60 [13] = assay: Induction of mitochondrial dysfunction in human HL60 cells assessed as increase in cytochome c levels in cytosol at 1.5 uM after 24 hrs by ELISA relative to control; format: functional
# HL-60 [14] = assay: Induction of cell death in human HL60 cells at 1 to 1.5 uM after 24 hrs in presence of antioxidant L-ascorbic acid by trypan blue assay; format: functional, cell-based
# HL-60 [15] = assay: Induction of cell death in human HL60 cells at 1 to 1.5 uM after 24 hrs in presence of antioxidant vitamin E by trypan blue assay; format: functional, cell-based
# HL-60 [16] = assay: Induction of cell death in human HL60 cells at 1 to 1.5 uM after 24 hrs in presence of antioxidant resveratrol by trypan blue assay; format: functional, cell-based
# HL-60 [17] = assay: Induction of cell death in human HL60 cells at 1 to 1.5 uM after 24 hrs in presence of […] BSO by MTT assay; format: functional, cell-based
# HL-60 [18] = assay: Induction of cell death in human HL60 cells at 0.4 uM after 24 hrs in absence of BSO by MTT assay; format: functional, cell-based
# [19] = target: T1, Thioredoxin reductase 1, cytoplasmic (Homo sapiens); assay: Inhibition of TrxR in human HL60 cells assessed as residual activity at 1.5 using thioredoxin as substrate measured for 5 mins by UV-Vis spectrophotometric analysis; format: cell-based
# HL-60 [20] = assay: Induction of mitochondrial membrane potential loss in human HL60 cells at 1 uM after 24 hrs by JC-1 staining-based flow cytometry; format: functional, cell-based
# HL-60 [21] = assay: Induction of mitochondrial membrane potential loss in human HL60 cells at 0.75 uM after 24 hrs by JC-1 staining-based flow cytometry (reference value: 28.6%); format: functional
# HL-60 [22] = assay: Induction of mitochondrial membrane potential loss in human HL60 cells at 1.5 uM after 24 hrs by JC-1 staining-based flow cytometry (reference value: 28.6%); format: functional
SMILES,Activity (HL-60 [1]),IC50 (HL-60 [1]) [µM],Activity (HL-60 [2]),IC50 (HL-60 [2]) [µM],Activity (MCF7),IC50 (MCF7) [µM],Activity (SGC-7901),IC50 (SGC-7901) [µM],IC50 (GES1) [µM],Activity (GES1),inhibition [3],Activity [4] [%],Activity (HL-60 [5]),Activity (HL-60 [6]),Activity (HL-60 [7]),Activity (HL-60 [8]),Activity (HL-60 [11]),Activity (Liver),Activity (HL-60 [12]),fold change (FC) (HL-60 [13]),also measured
Oc1ccccc1/C=N/c1ccc([As]2SCCCS2)cc1,Dose-dependent effect,0.94,Dose-dependent effect,0.71,Dose-dependent effect,2.44,Dose-dependent effect,7.69,3.55,Dose-dependent effect,Dose-dependent effect,20,inactive,inactive,Active,Active,Active,Active,Active,2,Activity (HL-60 [9]): 49.1%; Activity (HL-60 [10]): 71%; Activity (HL-60 [14]): Active; Activity (HL-60 [15]): Active; Activity (HL-60 [16]): Active; Activity (HL-60 [17]): Active; Activity (HL-60 [18]): Active; inhibition [19]: Dose-dependent effect; Activity (HL-60 [20]): Active
O=C(Nc1ccc([As]2SCCCS2)cc1)c1ccccc1O,Dose-dependent effect,0.84,Dose-dependent effect,0.69,Dose-dependent effect,7.89,Dose-dependent effect,14.5,9.07,Dose-dependent effect,Dose-dependent effect,20,inactive,inactive,Active,Active,Active,Active,Active,2,Activity (HL-60 [21]): 51.8%; Activity (HL-60 [22]): 71.8%; Activity (HL-60 [14]): Active; Activity (HL-60 [15]): Active; Activity (HL-60 [16]): Active; Activity (HL-60 [17]): Active; Activity (HL-60 [18]): Active; inhibition [19]: Dose-dependent effect; Activity (HL-60 [20]): Active
